Laboratory results from patent US12595269B2, “Morpholine-like monoamine releasers” (Solvonis Therapeutics Ireland Holdings Limited, priority 2022, dated 2026).

Target: T1, CYP1A2 (Homo sapiens, UniProt P05177)
T1 construct: host or cells: recombinant microsomes
T1 sequence (P05177 1-516): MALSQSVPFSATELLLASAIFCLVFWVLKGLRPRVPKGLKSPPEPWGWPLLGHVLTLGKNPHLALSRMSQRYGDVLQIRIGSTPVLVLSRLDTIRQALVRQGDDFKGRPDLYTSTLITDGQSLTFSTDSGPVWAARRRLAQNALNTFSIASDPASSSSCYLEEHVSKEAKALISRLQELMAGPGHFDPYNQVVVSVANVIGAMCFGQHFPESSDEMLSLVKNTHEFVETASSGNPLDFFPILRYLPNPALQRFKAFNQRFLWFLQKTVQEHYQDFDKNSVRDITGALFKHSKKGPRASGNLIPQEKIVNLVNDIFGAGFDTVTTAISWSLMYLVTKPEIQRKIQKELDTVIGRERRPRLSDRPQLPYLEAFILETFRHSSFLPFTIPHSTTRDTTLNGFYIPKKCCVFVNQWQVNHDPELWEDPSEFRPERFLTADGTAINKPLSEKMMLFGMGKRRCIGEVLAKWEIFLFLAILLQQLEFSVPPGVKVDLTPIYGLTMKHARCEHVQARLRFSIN
Assay: CYP450 inhibition, fluorescent probe, recombinant microsomes: CYP1A2
Assay type: in vitro ADME
Protocol: Methods and Procedure: The study was performed in agreement with previously described procedures to assure data integrity and adherence to GLP standards. Briefly, recombinant human CYP450 isoenzymes were used to metabolize pro-fluorescent probe substrates to fluorescent products. IC50 values determined from the effect of test compounds on the metabolism of these probe substrates were then used to determine inhibitory potency against CYP450 isoforms.
The test system was based on a three-step procedure with a “mix and read” format, where PGP-432,TI reaction and reading were performed at 37° C. […] Fluorescence was measured in kinetic mode (1 read/minutes for 10 minutes), and the fluorescence rate was calculated. […]
Microsomes were added to the buffer prior to the substrate addition. […] For fluorescence measurement, 10 μL/well of the test compounds were transferred from the compound plate to the assay plate using Biomek FX and the appropriate protocol. […]
10 μL/well of the cofactor was then added to the assay plate using the Multidrop before placing the assay plate in the plate reader EnVision to measure fluorescence. […]
Next, 10 μL/well from the compound plate was added and incubated for 10 minutes at 37° C. on a plate shaker, while a mixture of Vivid Substrate and Vivid NADP+ in Vivid CYP450 Reaction Buffer was prepared. […] Regarding data analysis, the inhibition effect is expressed as a percentage. […]

Structure (SMILES)	IC50 (recombinant human CYP1A2)	IC50 at 10 min (human, recombinant microsomes expressing CYP1A2)
Clc1ccc(C23CNC(CO2)C3)cc1Cl (centres unmarked) [522A, 1-(3,4-dichlorophenyl)-2-oxa-5-azabicyclo[2.2.1]heptane]	> 50 µM	
CNC(C)Cc1ccc2c(c1)OCO2 (centres unmarked) [MDMA, reference compound]		50 µM
